Laboratory results reported in article PMC7478165, “Derivatisation of parthenolide to address chemoresistant chronic lymphocytic leukaemia” (MedChemComm, 2019).
Read-outs that look alike come from different tables or passages of the source.

What was measured:
[1] = system: MEC1 CLL cell line; assay: alamarBlue assay, in vitro antileukaemic activity against MEC1 CLL cell line; format: cell-based
Excerpt: Defective p53-signalling increases genomic instability and drives tumour progression. A high frequency of p53 inactivation is found in relapsed, treatment-resistant, high risk CLL.[30] […] Owing to resource availability a subset of up to ten of these compounds was prioritised for further investigation. Compounds 2d, 2e, 2j, 2aa, 5a, 5d, 5e, 5f, 5ab and 6b were selected on the basis of reasons including ease of synthetic access, diversity across the chemical space probed and novelty. Those prepared under conditions (i)Scheme 1 (2d, 5a and 6b) were available on a scale and in a purity to directly permit follow-up studies, whereas compounds prepared under conditions (ii)Scheme 1 were prepared on a small scale so were resynthesised. These seven compounds (2e, 2j, 2aa, 5d, 5e, 5f and 5ab) were isolated on >30 mg scale in high purity and progressed to more following studies.
Following the identification of 5f as the most promising drug-like derivative of PTL from the aforementioned parallel/high-throughput screening, the anti-leukaemic activity of 5f was tested once more and compared directly with that of PTL (1) and DMAPT (2a), which serve as comparators and positive controls.
Amine 7 was successfully prepared as follows: 4-Piperidinecarboxylic acid was N-Boc protected to deliver 8 in 92% yield.[43] In order to confidently assign the NMR spectra of compound 8 J-MOD, HSQC and ^1H–^1H COSY were helpful, particularly in establishing that a broad resonance in the proton-decoupled ^13C NMR spectrum, centred on 42.8 ppm, corresponds to the ring-carbons bonded to nitrogen. The carboxylic acid of 8 was converted to the corresponding ethyl-3-keto-propanoate 9 in 24% yield. Conversion of 9 to the N-Boc protected congener 10, was achieved by treatment with acetamidine hydrochloride and potassium carbonate, furnishing 10 in 77% yield. Treatment with trifluoroacetic acid delivered desired compound 7 in 99% yield for the Boc-deprotection step (scale 200 mg, 17% over four linear steps). Thus, evidencing accessibility of amine 7 and with it in hand, it was timely to probe any activity arising from the amine alone. MEC1 sensitivity to 1, 5f and 7 was compared in parallel using the alamarBlue® assay (Fig. 6). […] A pre-peer-reviewed preprint of this article was deposited and may be viewed elsewhere.[44]

[2] = Stability in aqueous solution, pH 7.4; format: physicochemical; conditions: for stability in aqueous solution: result in words; for half-life: pH 7.4, read-out: Stability pH 7.4 T1/2
Protocol: Compounds 2d, 2e, 2f, 2g, 2j, 2aa, 5a, 5d, 5e, 5f, 5ab and 6b were subjected to in vitro DMPK testing. […] The other three (2d, 2j and 2aa) were not retained for further investigation due to poor stability (T1/2 at pH 7.4: 13, 107 and 76 min, Table 1, entries 1, 3 and 4 respectively). One obvious aspect contributing to observed stability is the propensity for PTL derivatives of this type to undergo a retro-amination (reverse-Michael-type mechanism), indeed this reverse reaction is often claimed as a pro-drug mode of action.[29a],[33] […] It is a reasonable assertion that activity observed for these unstable compounds could well be ascribed to free PTL generated rapidly in the assay.

[3] = Caco-2 permeability assay; format: in vitro ADME; conditions: human; for efflux ratio: Caco-2, pH 7.4
[4] = Microsomal stability assay (mouse); conditions: for microsomal CLint: mouse, liver microsomes; for Mouse microsomal stability: mouse microsomes
[5] = system: MEC1 CLL cell line; assay: cells; parameters: alamarBlue (resazurin reduction) viability assay in MEC1 CLL cells; conditions: Homo sapiens, MEC1, 24 h; read-out: alamarBlue EC50 (uM) average
Excerpt: Defective p53-signalling increases genomic instability and drives tumour progression. A high frequency of p53 inactivation is found in relapsed, treatment-resistant, high risk CLL.[30] […] Owing to resource availability a subset of up to ten of these compounds was prioritised for further investigation. Compounds 2d, 2e, 2j, 2aa, 5a, 5d, 5e, 5f, 5ab and 6b were selected on the basis of reasons including ease of synthetic access, diversity across the chemical space probed and novelty. Those prepared under conditions (i)Scheme 1 (2d, 5a and 6b) were available on a scale and in a purity to directly permit follow-up studies, whereas compounds prepared under conditions (ii)Scheme 1 were prepared on a small scale so were resynthesised. These seven compounds (2e, 2j, 2aa, 5d, 5e, 5f and 5ab) were isolated on >30 mg scale in high purity and progressed to more following studies. Biological efforts at Sygnature Discovery (where differing to University of Birmingham) MEC1 cells were obtained from the American Type Culture Collection (Manassas, VA 20110 USA) and were routinely cultured in RPMI 1640 medium (Sigma-Aldrich) supplemented with 1% L-glutamine (Sigma-Aldrich), 1% Penicillin/Streptomycin (Sigma-Aldrich) and 10% FBS (Gibco). The MEC1 proliferation assay was conducted by performing a re-feed of the MEC1 cells 24 h prior to cell seeding. On the day of the assay, cells were seeded into a 384-well assay plate at a density of 12,500 cells/well in 25 μL of complete MEC1 medium. Compound treatment was performed on the day of cell seeding, with compounds prepared as duplicate compound response curves (final DMSO concentration of 0.6%). Post compound treatment, MEC1 assay plates were returned to a 37 °C/5% CO2 incubator for 24 h of incubation. Following compound treatment, cellular viability was determined by measuring reduction of alamarBlue® reagent (Invitrogen). alamarBlue® reagent (2.5 μL) was added to each assay well to give a 1:10 dilution of the neat stock and assay plates were incubated for 3 h at 37 °C/5% CO2. Reduction of alamarBlue® was determined using an Envision Xcite plate reader (Perkin Elmer) with an excitation wavelength of 560 nm set and an emission wavelength of 590 nm set. Cell viability was determined by normalising raw fluorescent data to a cell only high control and Parthenolide treated low control to provide percentage viability readout. Data was plotted and EC50 values extracted and reported EC50s represent an average of at least two independent assays.

[6] = Homo sapiens, MEC1, MEC1 cell line, alamarBlue assay, library screen, read-out: EC50 ave.
[7] = MEC1 cell line pEC50 minus calculated log P
[8] = MEC1 cell line, alamarBlue assay, library screen, read-out: EC50 ave.
[9] = first of two columns headed A to B
[10] = second of two columns headed A to B

Structure (SMILES): C/C1=C\CC[C@@]2(C)O[C@@H]2[C@H]2OC(=O)[C@@H](CN[C@@H](Cc3ccccc3)C(=O)O)[C@@H]2CC1 [Compound 6b]
- EC50 [1, 6]: < 15 µM
- stability in aqueous solution [2]: greater than two hours
- efflux ratio [3]: 2.7
- microsomal CLint [4]: 9 µL/min/mg

Structure (SMILES): COc1ccc(CN(C)C[C@@H]2C(=O)O[C@H]3[C@H]2CC/C(C)=C/CC[C@@]2(C)O[C@H]32)cc1OC [C00003]
- LipE pEC50–clog P [1, 7]: 1.48
- EC50 [1, 8]: 5.6 µM
- Stability pH 7.4 T1/2 [2]: 107 min

Structure (SMILES): C/C1=C\CC[C@@]2(C)O[C@@H]2[C@H]2OC(=O)[C@@H](CN3CCC(Oc4cccnc4)CC3)[C@@H]2CC1 [Compound 5d]
- EC50 [1, 8]: < 15 µM
- stability in aqueous solution [2]: greater than two hours
- microsomal CLint [4]: > 100 µL/min/mg

Structure (SMILES): C/C1=C\CC[C@@]2(C)O[C@@H]2[C@H]2OC(=O)[C@@H](CN3CCC(OCc4cccnc4)CC3)[C@@H]2CC1 [Compound 5ab]
- EC50 [1, 6]: < 15 µM
- stability in aqueous solution [2]: greater than two hours
- microsomal CLint [4]: > 100 µL/min/mg

Structure (SMILES): CC1=CCCC2(C)OC2C2OC(=O)C(CN3CCCCC3)C2CC1 (stereo not shown) [Compound 5b]
- EC50 ([1]; Homo sapiens, MEC1, read-out: EC50 ave., MEC1 cell line, alamarBlue assay, library screen): < 15 µM
- stability in aqueous solution [2]: greater than two hours

Structure (SMILES): C/C1=C\CC[C@@]2(C)O[C@@H]2[C@H]2OC(=O)[C@@H](CN(CC3CC3)C(C)C)[C@@H]2CC1 [Compound 2f]
- EC50 [1, 6]: < 15 µM
- EC50 [5]: 12.2 µM

Structure (SMILES): C/C1=C\CC[C@@]2(C)O[C@@H]2[C@H]2OC(=O)[C@@H](CN3CCC(OCc4cccnc4)CC3)[C@@H]2CC1 [C00009]
- LipE pEC50–clog P [1, 7]: 2.29
- EC50 [1, 8]: 7.6 µM
- half-life [2]: > 2 h
- efflux ratio [3]: 0.8
- Papp A→B ([3]; Caco-2, pH 7.4, A to B): 10.9 ×10⁻⁶ cm/s
- Papp B→A ([3]; Caco-2, pH 7.4, B to A): 9.1 ×10⁻⁶ cm/s
- Mouse microsomal stability [4, 9]: 128
- Mouse microsomal stability [4, 10]: 11

Structure (SMILES): CCN(CCO)C[C@@H]1C(=O)O[C@H]2[C@H]1CC/C(C)=C/CC[C@@]1(C)O[C@H]21 [Compound 2d]
- EC50 [1, 8]: < 15 µM
- half-life [2]: 0.217 h

Structure (SMILES): CCn1cc(CN(C[C@@H]2C(=O)O[C@H]3[C@H]2CC/C(C)=C/CC[C@@]2(C)O[C@H]32)C(C)C)cn1 [C00002]
- LipE pEC50–clog P [1, 7]: 1.61
- EC50 [1, 8]: 5.6 µM
- half-life [2]: > 2 h
- Mouse microsomal stability [4, 9]: 828
- Mouse microsomal stability [4, 10]: 2

Structure (SMILES): COc1ccc(CN(C)C[C@@H]2C(=O)O[C@H]3[C@H]2CC/C(C)=C/CC[C@@]2(C)O[C@H]32)cc1OC [Compound 2j]
- EC50 [1, 8]: < 15 µM
- half-life [2]: 1.78 h
- EC50 [5]: 9.7 µM

Structure (SMILES): C/C1=C\CC[C@@]2(C)O[C@@H]2[C@H]2OC(=O)[C@@H](CN3CCC(Oc4cccnc4)CC3)[C@@H]2CC1 [C00006]
- LipE pEC50–clog P [1, 7]: 2.48
- EC50 [1, 8]: 5.4 µM
- half-life [2]: > 2 h
- Mouse microsomal stability [4, 9]: 251
- Mouse microsomal stability [4, 10]: 6

Structure (SMILES): C/C1=C\CC[C@@]2(C)O[C@@H]2[C@H]2OC(=O)[C@@H](CN(C)CCc3ccccc3)[C@@H]2CC1 [C00004]
- LipE pEC50–clog P [1, 7]: 2.52
- EC50 [1, 8]: 5.9 µM
- Stability pH 7.4 T1/2 [2]: 76 min

Structure (SMILES): CCN(CCO)C[C@@H]1C(=O)O[C@H]2[C@H]1CC/C(C)=C/CC[C@@]1(C)O[C@H]21 [C00001]
- LipE pEC50–clog P [1, 7]: 3.31
- EC50 [1, 8]: 4.7 µM
- Stability pH 7.4 T1/2 [2]: 13 min

Structure (SMILES): C/C1=C\CC[C@@]2(C)O[C@@H]2[C@H]2OC(=O)[C@@H](CN3CCC(c4ccc(C(N)=O)cc4)CC3)[C@@H]2CC1 [Compound 5h]
- EC50 [1, 6]: < 15 µM
- EC50 [5]: 13.8 µM

Structure (SMILES): Cc1nc(O)cc(C2CCNCC2)n1 [Amine 7]
- EC50 ([1]; MEC1 cells, alamarBlue, 1, 5f and 7 compared in parallel, CalcuSyn): could not be determined

Structure (SMILES): C/C1=C\CC[C@@]2(C)O[C@@H]2[C@H]2OC(=O)[C@@H](CN3CCC(O)(c4ccccc4)CC3)[C@@H]2CC1 [C00007]
- LipE pEC50–clog P [1]: 1.90
- EC50 [1, 8]: 6 µM
- half-life [2]: > 2 h

Structure (SMILES): C=C1C(=O)O[C@@H]2[C@H]3O[C@]3(C)CC/C=C(\C)CC[C@@H]12 [PTL, parthenolide]
- EC50 ([1]; Homo sapiens, MEC1, MEC1 cells, alamarBlue, 1, 5f and 7 compared in parallel, CalcuSyn, read-out: EC50): 3.6 µM
- EC50 ([1]; Homo sapiens, MEC1, MEC1 cells, alamarBlue, direct comparison of 5f with PTL and DMAPT, n = 5, read-out: EC50): 6.2 µM

Structure (SMILES): CCn1cc(CN(C[C@@H]2C(=O)O[C@H]3[C@H]2CC/C(C)=C/CC[C@@]2(C)O[C@H]32)C(C)C)cn1 [Compound 2e]
- EC50 [1, 8]: < 15 µM
- stability in aqueous solution [2]: greater than two hours
- microsomal CLint [4]: > 100 µL/min/mg

Structure (SMILES): C/C1=C\CC[C@@]2(C)O[C@@H]2[C@H]2OC(=O)[C@@H](CN(C)CCc3ccccc3)[C@@H]2CC1 [Compound 2aa]
- EC50 [1, 8]: < 15 µM
- half-life [2]: 1.27 h

Structure (SMILES): C/C1=C\CC[C@@]2(C)O[C@@H]2[C@H]2OC(=O)[C@@H](CN(CCO)C3CCCCC3)[C@@H]2CC1 [Compound 2g]
- EC50 [1, 6]: < 15 µM
- EC50 [5]: 10 µM
